From PubChem BioAssay AID248 (DTP/NCI, 2004)
Several values for one entry are separate records, joined by “and”; a condition that tells them apart may be missing. Identical values can stand only once. Toxic doses and inconclusive results are not listed. Cut-off read from the data, not from the text of the source: active = T/C of 150% or more; inactive = T/C below 125%.

Tested on: L1210 leukemia ip in BDF1 mice, survival T/C
Assay: NCI In Vivo Anticancer Drug Screen. Data for tumor model L1210 Leukemia (intraperitoneal) in B6D2F1 (BDF1) mice
Conditions: endpoint: mean survival time, higher = longer survival
Outline: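 Tumor cells were implanted, animals were treated, and survival was followed. The result divides the treated measurement by the vehicle-control measurement.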

[1] = dose: 50.0 mg/kg/injection, schedule: Q01DX009 (ip), vehicle: Klucel (hydroxypropylcellulose) (HPC)
[2] = dose: 100.0 mg/kg/injection, schedule: Q04DX003 (ip), vehicle: Klucel (hydroxypropylcellulose) (HPC)
[3] = dose: 222.0 mg/kg/injection, schedule: Q01DX Z (ip), vehicle: saline
[4] = dose: 333.0 mg/kg/injection, schedule: Q01DX Z (ip), vehicle: saline
[5] = dose: 500.0 mg/kg/injection, schedule: Q01DX Z (ip), vehicle: saline
[6] = dose: 100.0 mg/kg/injection, schedule: Q01DX001 (ip), vehicle: saline
[7] = dose: 200.0 mg/kg/injection, schedule: Q01DX001 (ip), vehicle: saline
[8] = dose: 400.0 mg/kg/injection, schedule: Q01DX001 (ip), vehicle: saline
[9] = dose: 100.0 mg/kg/injection, schedule: Q04DX002 (ip), vehicle: Klucel (hydroxypropylcellulose) (HPC)
[10] = dose: 200.0 mg/kg/injection, schedule: Q04DX002 (ip), vehicle: Klucel (hydroxypropylcellulose) (HPC)
[11] = dose: 400.0 mg/kg/injection, schedule: Q04DX002 (ip), vehicle: Klucel (hydroxypropylcellulose) (HPC)
[12] = dose: 100.0 mg/kg/injection, schedule: Q04DX003 (ip), vehicle: saline with Tween-80
[13] = dose: 400.0 mg/kg/injection, schedule: Q04DX003 (ip), vehicle: saline with Tween-80
[14] = dose: 100.0 mg/kg/injection, schedule: Q01DX009 (ip), vehicle: saline with Tween-80
[15] = dose: 200.0 mg/kg/injection, schedule: Q01DX009 (ip), vehicle: saline with Tween-80
[16] = dose: 200.0 mg/kg/injection, schedule: Q04DX003 (ip), vehicle: saline with Tween-80
[17] = dose: 400.0 mg/kg/injection, schedule: Q01DX009 (ip), vehicle: saline with Tween-80
[18] = dose: 50.0 mg/kg/injection, schedule: Q01DX009 (ip), vehicle: saline with Tween-80
[19] = dose: 100.0 mg/kg/injection, schedule: Q01DX009 (ip), vehicle: Klucel (hydroxypropylcellulose) (HPC)
[20] = dose: 200.0 mg/kg/injection, schedule: Q01DX009 (ip), vehicle: Klucel (hydroxypropylcellulose) (HPC)
[21] = dose: 400.0 mg/kg/injection, schedule: Q01DX009 (ip), vehicle: Klucel (hydroxypropylcellulose) (HPC)
[22] = dose: 100.0 mg/kg/injection, schedule: Q04DX003 (ip), vehicle: saline sonified
[23] = dose: 200.0 mg/kg/injection, schedule: Q04DX003 (ip), vehicle: saline sonified
[24] = dose: 400.0 mg/kg/injection, schedule: Q04DX003 (ip), vehicle: saline sonified

Measured: T/C

O=c1c(Br)cc(Cl)nc2c(Br)cc(Br)cc12
inactive: dose: 12.0 mg/kg/injection, schedule: Q01DX009 (ip), vehicle: Klucel (hydroxypropylcellulose) (HPC) 103 % of control | dose: 25.0 mg/kg/injection, schedule: Q01DX009 (ip), vehicle: Klucel (hydroxypropylcellulose) (HPC) 103 % of control | dose: 25.0 mg/kg/injection, schedule: Q04DX003 (ip), vehicle: Klucel (hydroxypropylcellulose) (HPC) 102 % of control | [1] 96 % of control and 89 % of control | dose: 50.0 mg/kg/injection, schedule: Q04DX003 (ip), vehicle: Klucel (hydroxypropylcellulose) (HPC) 98 % of control | [2] 93 % of control and 91 % of control

CC(C)C(=O)OCC1CC2C=CC1C2 (stereo not drawn)
inactive: [3] 96 % of control | [4] 104 % of control | [5] 98 % of control

CC(=O)C[n+]1ccccc1
inactive: [6] 106 % of control and 97 % of control | dose: 100.0 mg/kg/injection, schedule: Q01DX009 (ip), vehicle: acetone 96 % of control | [7] 100 % of control and 95 % of control | dose: 200.0 mg/kg/injection, schedule: Q01DX009 (ip), vehicle: acetone 105 % of control | [8] 89 % of control and 97 % of control | dose: 400.0 mg/kg/injection, schedule: Q01DX009 (ip), vehicle: acetone 89 % of control

CCCCCC(Oc1ccc(Cl)cc1)C(=O)OCC (stereo not drawn)
inactive: dose: 100.0 mg/kg/injection, schedule: Q01DX009 (ip), vehicle: saline 101 % of control | dose: 200.0 mg/kg/injection, schedule: Q01DX009 (ip), vehicle: saline 90 % of control | dose: 400.0 mg/kg/injection, schedule: Q01DX009 (ip), vehicle: saline 114 % of control

Nc1ccc(S(=O)(=O)Nc2ccccn2)cc1
inactive: [9] 102 % of control | [10] 98 % of control | [11] 98 % of control

CN(C)c1ccc2c(c1)C(=O)c1cc(Br)ccc1-2
inactive: dose: 100.0 mg/kg/injection, schedule: Q01DX001 (ip), vehicle: carboxymethylcellulose (CMC) 105 % of control | dose: 200.0 mg/kg/injection, schedule: Q01DX001 (ip), vehicle: carboxymethylcellulose (CMC) 100 % of control | dose: 400.0 mg/kg/injection, schedule: Q01DX001 (ip), vehicle: carboxymethylcellulose (CMC) 108 % of control

Nc1ncnc(N)c1NC(=O)c1ccc(-c2ccccc2)cc1
inactive: [12] 91 % of control | [13] 86 % of control

Nc1nc(Cl)[nH]c1-c1ncn[nH]1
inactive: [6] 92 % of control | [7] 106 % of control

CC(C)(CCc1ccccn1)C(=O)C(CCc1ccccn1)CCc1ccccn1
inactive: [3] 110 % of control | [4] 102 % of control | [5] 96 % of control

O=C1NC(=O)c2ncccc21
inactive: [14] 90 % of control | [12] 87 % of control | [15] 95 % of control | [16] 103 % of control | [17] 97 % of control | [13] 100 % of control

Clc1ccc(C=Nc2cccc3ccccc23)cc1Cl
inactive: [14] 95 % of control | [15] 95 % of control | [17] 94 % of control

c1ccc(N=C(c2ccccc2)c2ccccc2)cc1
inactive: dose: 50.0 mg/kg/injection, schedule: Q01DX001 (ip), vehicle: saline 102 % of control | [6] 98 % of control | [7] 98 % of control | [8] 102 % of control

COC(=O)C1CCCN1C(=O)C(C)=O (stereo not drawn)
inactive: dose: 100.0 mg/kg/injection, schedule: Q04DX002 (ip), vehicle: saline 102 % of control | dose: 200.0 mg/kg/injection, schedule: Q04DX002 (ip), vehicle: saline 94 % of control | dose: 400.0 mg/kg/injection, schedule: Q04DX002 (ip), vehicle: saline 113 % of control

CCOC(=O)N/N=C/C(Br)=C\c1ccccc1
inactive: [18] 93 % of control | dose: 100.0 mg/kg/injection, schedule: Q04DX002 (ip), vehicle: saline with Tween-80 101 % of control | [15] 87 % of control | dose: 200.0 mg/kg/injection, schedule: Q04DX002 (ip), vehicle: saline with Tween-80 96 % of control

CCOC(=O)c1cnc2c(cnn2CC)c1NCC(C)C
inactive: [1] 100 % of control | [19] 100 % of control | [20] 103 % of control

NC(=O)NC(=O)C1C2C=CC(C2)C1C(=O)NC(N)=O (stereo not drawn)
inactive: [12] 100 % of control | [16] 100 % of control | [13] 91 % of control

Cc1cc(OCCOC(=O)Nc2ccccc2F)ccc1Cl
inactive: [19] 107 % of control | [20] 102 % of control | [21] 112 % of control

O=C(Nc1ccc(Cl)cc1Cl)P(=O)(O)c1ccccc1
inactive: [19] 92 % of control | [9] 101 % of control | [20] 103 % of control | [10] 90 % of control | [21] 92 % of control

Cc1coc(NS(=O)(=O)c2ccc(N=Nc3ccc(O)c4ncccc34)cc2)c1C
inactive: [6] 102 % of control | [7] 108 % of control

Cc1ccc(N=Nc2cc(C)c(N)cc2N)c(S(=O)(=O)O)c1
inactive: dose: 100.0 mg/kg/injection, schedule: Q04DX003 (ip), vehicle: other 96 % of control | dose: 200.0 mg/kg/injection, schedule: Q04DX003 (ip), vehicle: other 105 % of control | dose: 400.0 mg/kg/injection, schedule: Q04DX003 (ip), vehicle: other 103 % of control

Cc1ccccc1NC(N)=O
inactive: [2] 110 % of control | dose: 200.0 mg/kg/injection, schedule: Q04DX003 (ip), vehicle: Klucel (hydroxypropylcellulose) (HPC) 105 % of control | dose: 400.0 mg/kg/injection, schedule: Q04DX003 (ip), vehicle: Klucel (hydroxypropylcellulose) (HPC) 103 % of control

Cc1ccc(NC(=O)Oc2ccccc2C(=O)OCc2ccccc2)cc1
inactive: [19] 101 % of control | [9] 88 % of control | [20] 106 % of control | [10] 88 % of control | [21] 101 % of control | [11] 107 % of control

NC(=O)CCCCCCCCC(N)=O
inactive: [6] 98 % of control | [7] 98 % of control | [8] 92 % of control

CCCCn1cc(S(=O)(=O)Nc2ccccc2)c(=O)[nH]c1=O
inactive: dose: 37.5 mg/kg/injection, schedule: Q01DX001 (ip), vehicle: saline with Tween-80 104 % of control | dose: 75.0 mg/kg/injection, schedule: Q01DX001 (ip), vehicle: saline with Tween-80 98 % of control | dose: 150.0 mg/kg/injection, schedule: Q01DX001 (ip), vehicle: saline with Tween-80 98 % of control

CC(=O)NC1C(OC(C)=O)OC(COC(c2ccccc2)(c2ccccc2)c2ccccc2)C(OS(C)(=O)=O)C1OC(C)=O (stereo not drawn)
inactive: dose: 50.0 mg/kg/injection, schedule: Q04DX003 (ip), vehicle: saline with Tween-80 109 % of control | [12] 109 % of control and 91 % of control | [16] 121 % of control | [13] 88 % of control

Cc1ccc2nc3c(cc(F)c4ccccc43)c(C)c2c1
inactive: [18] 105 % of control | [14] 87 % of control

COc1cc(/C=N\N=C\c2ccc(OC(=O)c3cc(OC)c(OC)c(OC)c3)c(OC)c2)ccc1OC(=O)c1cc(OC)c(OC)c(OC)c1
inactive: [19] 95 % of control | [20] 95 % of control | [21] 102 % of control

Clc1ccc(CN2COc3c(ccc4cccnc34)C2)cc1Cl
inactive: [22] 105 % of control | [23] 94 % of control | [24] 100 % of control

Cc1cccc(NC(=O)Nc2ccccc2Cl)n1
inactive: [9] 87 % of control | [10] 87 % of control | [11] 90 % of control

CC(C)=C(Br)CN
inactive: dose: 100.0 mg/kg/injection, schedule: Q04DX003 (ip), vehicle: saline 95 % of control | dose: 200.0 mg/kg/injection, schedule: Q04DX003 (ip), vehicle: saline 108 % of control | dose: 400.0 mg/kg/injection, schedule: Q04DX003 (ip), vehicle: saline 94 % of control

CC(=O)O/N=C(/C)c1ccccc1
inactive: dose: 75.0 mg/kg/injection, schedule: Q01DX009 (ip), vehicle: saline sonified 102 % of control | [22] 100 % of control | dose: 150.0 mg/kg/injection, schedule: Q01DX009 (ip), vehicle: saline sonified 100 % of control | [23] 97 % of control | [24] 100 % of control
